According to the SangsterLogP compilation:

experiment: method code SF-HPLC, from DOI: 10.1016/j.ecoenv.2011.11.024; details: pH 2.0

SMILES	logD
Sc1c(Cl)cccc1Cl	2.35
Sc1ccc(Cl)cc1Cl	2.49
COc1ccc(S)cc1OC	3.32
Sc1ccc(Br)cc1	2.72
Sc1ccccc1Cl	2.27
Cc1cccc(C)c1S	4.02
Cc1ccc(S)c(C)c1	3.77
Sc1cc(Cl)cc(Cl)c1	2.43
COc1cccc(S)c1	2.93
Cc1ccc(S)cc1	3.27
Cc1ccc(S)cc1C	3.62
Sc1cc(Cl)ccc1Cl	2.48
Cc1ccc(C)c(S)c1	3.92
Fc1cc(F)c(F)c(S)c1F	1.76
Sc1ccc(Cl)cc1	2.66

Second part, the compound after the results:

logD	SMILES
2.44	Sc1cccc(Cl)c1Cl
1.9	Fc1ccccc1S
2.12	Fc1cccc(S)c1
2.47	Sc1cccc(Cl)c1
2.92	Fc1ccc(S)cc1
3.52	Cc1ccccc1S
2.48	Sc1cccc(Br)c1
2.44	Sc1ccccc1Br
3.13	Cc1cccc(S)c1
